Data published in patent US20150216182A1, “COMPOSITIONS AND METHODS OF THE ATTRACTION AND REPULSION OF INSECTS” (Olfactor Laboratories, Inc., priority 2012, published 2015).
Like-named read-outs stand apart in the source and are kept apart here.

Legend:
[1] = system: bed bugs (Cimex lectularius); assay: bed bug repellency assay; type: in vivo; conditions: for % Rep (bed bug repellency): compound or combination on filter paper harborage, ten bed bugs
Method: Compounds and combinations of compounds of the present invention were assayed for their ability to repel bed bugs (Cimex lectularius) using a bed bug repellency assay. This assay takes advantage of the bed bug's natural tendency to seek harborage. Two petri dishes were obtained and the inner areas of each were sanded down (leaving the perimeter smooth.) Talc was applied on the perimeter and on the inside walls of the petri dishes with a small paint brush to prevent bed bugs from escaping. A cut off top portion of a solo bathroom cup was placed upside down in the center of one petri dish. A large plastic secondary container was gathered and a paper towel was laid down inside the bottom. The petri dish was then placed inside and ten bed bugs were placed inside the cut off portion of the solo cup. Next, two pieces of filter paper were cut down the middle to yield 4 equally sized halves. 3 pieces were placed inside a glass dish ([…]) and the remaining piece was placed in a separate dish. All 4 pieces were folded down the middle to create a “tent” or “harborage” when laid such that the folded crease faced up. 100 microliters of isopropyl alcohol was pipetted into 3 pieces of filter paper (all housed in the first glass dish.) In a separate 4 ml vial, 90 microliters of isopropyl alcohol was combined and vortexed with 10 microliters of the compound or compound combination being tested. 100 microliters of this solution [comprising a total of 100 mg of compound(s)] was pipetted onto the filter paper in the separate dish. All filter papers were then allowed to dry. Once dry, experiments were conducted first with two filter paper halves comprising only the isopropyl alcohol (control experiment) and then with the remaining filter paper halves [one with only isopropyl alcohol and one comprising the test compound(s).] Filter paper halves were placed on opposing sides of experimental petri dishes and bed bugs were allowed to move freely within the dishes for 5 minutes. Movement of bed bugs beneath each filter paper tent was recorded. […] In the Table, “Rep” refers to repellency and “Cmpd” refers to compound.

cpA neurons [2] = assay: extracellular single-sensillum electrophysiology: inhibition of CO2-responsive (cpA) neuronal activity; conditions: for Class: Table 10, single compounds, percent reduction in cpA activity compared to baseline; for Class (inhibitor class of the individual component): Inh = inhibitor
female mosquitoes = assay: whole plant or invertebrate; conditions: 2 h; for mortality at 200 µg/mL: read-out: % mortality with 0.2 mg/ml; for mortality at 2000 µg/mL: read-out: % mortality with 2 mg/ml
larvae = assay: larvicidal activity assay; type: in vivo; conditions: for pest or weed control at 0.25 %: read-out: % Lethality with 0.25% compound conc.; for pest or weed control at 100 ppm: read-out: % Lethality at 100 ppm
Method: A 6-well plate (Corning Life Sciences, Tewksbury, Mass.) is used to test a compound's larvicidal activity. […] After a 24 hour exposure, the number of dead larvae are counted and recorded.
The results are presented in Table 17 as % lethality (the number of dead larvae divided by the total number of larvae).

cpA neurons [3] = assay: extracellular single-sensillum electrophysiology: activation of cpA neuronal activity; conditions: for Comp A Class / Comp B Class: Table 9; for Comp A Class: component A tested individually; for Class: Table 6, single compounds, increase over baseline cpA neuronal activity; for Comp B Class: component B tested individually; for Class B (activator class of the individual component): Table 15, single component alone, Mod Actv; for Class (activator class of the individual component): Actv = activator
[4] = Table 16, single component alone
[5] = 0.25% compound, 24 hour exposure, dead larvae / total larvae
[6] = 100 ppm compound, 24 hour exposure, dead larvae / total larvae
[7] = Table 13, single component alone

Molecule | % Rep (bed bug repellency) [1] [%] | Class (cpA neurons [2]) | mortality at 200 µg/mL (female mosquitoes) [%] | mortality at 2000 µg/mL (female mosquitoes) [%] | pest or weed control at 0.25 % (larvae; [5]) [%] | pest or weed control at 100 ppm (larvae; [6]) [%] | Comp A Class (cpA neurons [3]) | Class (cpA neurons [3]) | Class B (activator class of the individual component) (cpA neurons [3]) | also measured
CCc1nccnc1CC [OLI0068, 2,3-diethylpyrazine] | 24 | Strong Inhibitor (strong inhibitors (reducing activity >60%)) | 0 | 0 | 100 | 0 | – | – | – | Class (inhibitor class of the individual component) (cpA neurons [2]; [4]): Strng
CCc1nccnc1C [OLI0069, 2-ethyl-3-methylpyrazine] | 10 | Strong Inhibitor (strong inhibitors (reducing activity >60%)) | 0 | 0 | 100 | 0 | – | – | – | –
CCCCCCC(=O)OC [OLI0091, methyl heptanoate] | 20 | Mild Inhibitor (mild inhibitors (reducing activity by 20-40%)) | 0 | 0 | 72 | 0 | Mild Inh (mild inhibitors (reducing activity by 20-40%)) | – | – | –
C=CCc1ccc(O)c(OC)c1 [OLI0102, Eugenol] | 100 | – | 0 | 100 | 100 | 25 | – | – | – | ability to repel bed bugs ([1]; 100 microliters solution on filter paper tent, 5 minutes): surprisingly strong ability to repel bed bugs; Class (inhibitor class of the individual component) (cpA neurons [2]; [7]): Mild; Class (inhibitor class of the individual component) (cpA neurons [2]; [4]): Mild
CCc1ncc(C)nc1CC [OLI0067, 2,3-diethyl-5-methylpyrazine] | 100 | Strong Inhibitor (strong inhibitors (reducing activity >60%)) | 0 | 0 | 100 | 0 | – | – | – | –
CCc1nccnc1OC [OLI0071, 2-ethyl-3-methoxypyrazine] | 29 | Moderate Inhibitor (moderate inhibitors (reducing activity by 40-60%)) | 0 | 0 | 100 | 0 | – | – | – | Class (inhibitor class of the individual component) (cpA neurons [2]; [7]): Mod; Class (inhibitor class of the individual component) (cpA neurons [2]; [4]): Mod; inhibitor class of single compound (cpA neurons [2]): moderate inhibitor (40-60% reduction in neuronal activity as compared to baseline activity of the neuron)
c1ccc2[nH]ccc2c1 [OLI0052, indole] | 100 | – | 0 | 100 | – | – | – | Mild Activator (mild activators yield an increase in neuronal activity that is between 20 and 40 spk/sec over baseline neuronal activity) | – | pest or weed control at 100 ppm (larvae; 24 h): 100%; pest or weed control at 0.25 % (larvae; 24 h): 100%
C=CCOC(=O)CCC [OLI0019, allyl butyrate] | 8 | – | 0 | 0 | 100 | 0 | – | Moderate Activator (Moderate activators yield an increase in neuronal activity that is between 40 and 60 spk/sec over baseline neuronal activity) | Mod | Comp B Class (cpA neurons [3]): Mod
CCOC(=O)c1ccco1 [OLI0009, ethyl 2-furoate] | 41 | – | 0 | 0 | 100 | 0 | – | Strong Activator (strong activators yield an increase in activity that is >60 spk/sec over baseline neuronal activity) | – | –
CCc1ccc(O)cc1 [OLI0005, 4-ethylphenol] | 100 | – | 0 | 100 | – | – | – | Strong Activator (strong activators yield an increase in activity that is >60 spk/sec over baseline neuronal activity) | – | pest or weed control at 100 ppm (larvae; 24 h): 100%; pest or weed control at 0.25 % (larvae; 24 h): 100%
Cc1nccnc1C [OLI0015, 2,3-dimethylpyrazine] | 77 | – | 0 | 0 | 0 | 0 | Mod | Moderate Activator (Moderate activators yield an increase in neuronal activity that is between 40 and 60 spk/sec over baseline neuronal activity) | Mod | Comp B Class (cpA neurons [3]): Mod; Class (activator class of the individual component) (cpA neurons [3]; [7]): Mod; Class (activator class of the individual component) (cpA neurons [3]; [4]): Mod; activator class of single compound (cpA neurons [3]; single compound): moderate activator (spike rate of 40-60 spk/sec over the baseline activity of the neuron)
Cc1cnc(C)c(C)n1 [OLI0014, 2,3,5-trimethylpyrazine] | 59 | – | 0 | 0 | 21 | 0 | Mod | Moderate Activator (Moderate activators yield an increase in neuronal activity that is between 40 and 60 spk/sec over baseline neuronal activity) | Mod | Comp B Class (cpA neurons [3]): Mod
CCCC(O)CC(=O)OCC (stereo not drawn) [OLI0021, ethyl 3-hydroxyhexanoate] | 100 | – | 0 | 75 | 0 | 0 | Mod | Moderate Activator (Moderate activators yield an increase in neuronal activity that is between 40 and 60 spk/sec over baseline neuronal activity) | Mod | Comp B Class (cpA neurons [3]): Mod
CC(=O)c1ccc(C)o1 [OLI0016, 2-acetyl-5-methyl furan] | 86 | – | 0 | 0 | 100 | 0 | Mod | Moderate Activator (Moderate activators yield an increase in neuronal activity that is between 40 and 60 spk/sec over baseline neuronal activity) | Mod | Comp B Class (cpA neurons [3]): Mod
2-methoxy-3(5or6)isopropylpyrazine [OLI0072] | 100 | Moderate Inhibitor (moderate inhibitors (reducing activity by 40-60%)) | – | – | – | – | – | – | – | Class (inhibitor class of the individual component) (cpA neurons [2]; [7]): Mod; Class (inhibitor class of the individual component) (cpA neurons [2]; [4]): Mod; inhibitor class of single compound (cpA neurons [2]): moderate inhibitor (40-60% reduction in neuronal activity as compared to baseline activity of the neuron); % Lethality with 0.25% compound conc. (larvae; [5]): 100% lethal; % Lethality at 100 ppm (larvae; [6]): 0% lethal
CC(=O)c1ccco1 [OLI0017, 2-furyl methyl ketone] | 60 | – | 0 | 0 | 100 | 50 | Mod | Moderate Activator (Moderate activators yield an increase in neuronal activity that is between 40 and 60 spk/sec over baseline neuronal activity) | Mod | –
CCCCCCC/C=C/C=O [OLI0077, trans-2-decenal] | 72 | Moderate Inhibitor (moderate inhibitors (reducing activity by 40-60%)) | – | – | – | – | – | – | – | Class (inhibitor class of the individual component) (cpA neurons [2]; [7]): Mod
